Measured values taken from article PMC10814725, “In Vitro Anti-Inflammatory Study of Limonoids Isolated from Chisocheton Plants” (Current Issues in Molecular Biology, 2024).

What was measured:
[1] = tested on: TLR4-dependent NF-kB activation in HEK-Blue hTLR4 cells; assay: SEAP reporter gene assay, antagonist effect on LPS-stimulated TLR4-dependent NF-κB activation; format: cell-based, human; conditions: 20 µM, LPS 10 ng/mL, 18 h, vs. LPS stimulated-only group
Method: The SEAP Reporter Gene Assay was conducted as previously described. HEK-Blue^TM hTLR4 cells (2 × 10^4 cells/well) were seeded in 96-well plates and were serum-starved for 24 h at 37 °C in a 5% carbon dioxide atmosphere. After incubation, the culture medium was aspirated, and the cells were washed with saline. High-glucose D-MEM supplemented with 0.1% FBS and 1% penicillin-streptomycin was added and treated with or without the 17 limonoids at a concentration of 20 µM for 1 h, followed by LPS addition at a concentration of 10 ng/mL for the LPS-stimulated group. After incubation at 37 °C for 18 h, the supernatants were collected and PNPP in PBS solution (0.8 mM, 100 μL) was added, followed by 4 h of shading at 25 °C. The optical density (OD) of the samples was measured at 405 nm using a microplate reader (BioTek Cytation 5 Cell Imaging Multimode Reader, Agilent Technologies, Santa Clara, CA, USA).

TNF-α = assay: ELISA of TNF-α production in LPS-stimulated THP-1 cells; format: cell-based, human; conditions: for Effect on TNF-α level: 10 µM, compared to LPS (+)-stimulated group, THP-1 cells; for IC50: Homo sapiens, THP-1, 18 h, LPS-stimulated (10 ng/mL) THP-1 cells, 1, 5, 10, 20 µM, 18 h, read-out: TNF-α IC50; for TNF-α SI (selectivity index, CC50/IC50): THP-1 CC50 / TNF-α IC50
IL-6 = assay: ELISA of IL-6 production in LPS-stimulated THP-1 cells; format: cell-based, human; conditions: for Effect on IL-6 level: 10 µM, compared to LPS (+)-stimulated group, THP-1 cells; for IC50: Homo sapiens, THP-1, 18 h, LPS-stimulated (10 ng/mL) THP-1 cells, 1, 5, 10, 20 µM, 18 h
Method: (§1) The logarithmic growth phase of THP-1 cells was achieved by seeding in 96-well plates at a density of 5 × 10^4 cells/well and differentiated for 24 h in the presence of PMA (0.5 μM solution in medium). After 24 h of incubation, the culture medium was removed from the 96-well plate and the cells were washed with PBS. […] The cells were pretreated with 17 limonoids at the corresponding concentration for 1 h, followed by the addition of LPS (10 ng/mL) and then incubation at 37 °C for 18 h. Finally, 50 μL of each culture supernatant solution was taken to determine the concentrations of IL-6, MCP-1, and IL-1β using the corresponding commercially available human ELISA kits following the manufacturer’s instructions. The analyte concentration in the supernatant was measured in pg/mL, and the inhibition level was expressed as a fold change compared to the LPS (−) control group. To determine the IC50 value, the dose-response data were normalized to the LPS-stimulated-only group, and the percentage of inhibition was calculated using the following formula: % Inhibition=(Absorbance of LPS+ control−Absorbance of compound treatment with LPS)/(Absorbance of LPS+ control−Absorbance of LPS− control)×100
(§2) Furthermore, the % inhibition data were interpolated into linear equations to determine the IC50 values.

IL-1β = assay: ELISA of IL-1β production in LPS-stimulated THP-1 cells; format: cell-based, human; conditions: 10 µM, compared to LPS (+)-stimulated group
Method: The logarithmic growth phase of THP-1 cells was achieved by seeding in 96-well plates at a density of 5 × 10^4 cells/well and differentiated for 24 h in the presence of PMA (0.5 μM solution in medium). After 24 h of incubation, the culture medium was removed from the 96-well plate and the cells were washed with PBS. Fresh RPMI-1640 medium supplemented with 0.1% FBS and 1% Penicillin–Streptomycin was added to each well and incubated at 37 °C overnight. The cells were pretreated with 17 limonoids at the corresponding concentration for 1 h, followed by the addition of LPS (10 ng/mL) and then incubation at 37 °C for 18 h. Finally, 50 μL of each culture supernatant solution was taken to determine the concentrations of IL-6, MCP-1, and IL-1β using the corresponding commercially available human ELISA kits following the manufacturer’s instructions. The analyte concentration in the supernatant was measured in pg/mL, and the inhibition level was expressed as a fold change compared to the LPS (−) control group. To determine the IC50 value, the dose-response data were normalized to the LPS-stimulated-only group, and the percentage of inhibition was calculated using the following formula: % Inhibition=(Absorbance of LPS+ control−Absorbance of compound treatment with LPS)/(Absorbance of LPS+ control−Absorbance of LPS− control)×100
as §2

MCP-1 = assay: ELISA of MCP-1 production in LPS-stimulated THP-1 cells; format: cell-based, human; conditions: for Effect on MCP-1 level: 10 µM, compared to LPS (+)-stimulated group, THP-1 cells; for IC50: Homo sapiens, LPS-stimulated (10 ng/mL) THP-1 cells, 1, 5, 10, 20 µM, 18 h; for MCP-1 SI (selectivity index, CC50/IC50): THP-1 CC50 / MCP-1 IC50
Method: as §1, §2

[2] = Cell viability by CCK-8, HEK-Blue hTLR4 cells; format: cell-based; conditions: human
Procedure, shortened: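 CCK-8 read-out. HEK-Blue hTLR4 cells (2 × 10^4/well) serum-starved 24 h, then in high-glucose D-MEM with 0.1% FBS pretreated ±20 µM limonoids for 1 h before 10 ng/mL LPS; CCK-8 (10% v/v) added after 18 h and incubated 1 h at 37 °C. RAW264.7 viability measured likewise with CCK-8.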

phosphorylated-p38 MAPK = assay: Western blotting of phosphorylated-p38 MAPK in LPS-stimulated THP-1 cells; format: cell-based, human; conditions: 10 µM, LPS 10 ng/mL, 18 h, compared to LPS (+) group
Method: THP-1 cells were seeded at a density of 1 × 10^6 cells/well in 24-well plates. The cells were then pretreated with a concentration of 10 µM of compounds 3, 5, 9, or 15 for 1 h. Subsequently, LPS (10 ng/mL) was added to the cells, which were incubated for 18 h. The protein concentrations were determined using a bicinchoninic acid (BCA) assay kit.
For Western blot analysis, proteins were separated by SDS-PAGE and transferred onto a polyvinylidene fluoride (PVDF) membrane. The membranes were blocked with 2.5% BSA in Tris-buffered saline-Tween (TBST) for 1 h at room temperature. After three washes with TBST, the membranes were incubated with a diluted primary antibody solution (anti-phosphorylated-p38 MAPK or anti-p38 MAPK) at a 1:1000 dilution for 1 h at room temperature. After three washes with TBS-T, the membranes were incubated with a secondary antibody conjugated to horseradish peroxidase (HRP; 1:4000 dilution) for 30 min at room temperature and subsequently detected by chemiluminescence. Finally, the bands were visualized and quantified using an ImageQuant 800 GxP system (Cytiva, MA, USA). The results were expressed as ratios relative to the reference protein β-actin.

[3] = tested on: TNF-α, IL-6, IL-1β, and MCP-1; assay: ELISA of pro-inflammatory markers overall (TNF-α, IL-6, IL-1β, MCP-1) in LPS-stimulated THP-1 cells; format: cell-based; conditions: Homo sapiens, read-out: Overall IC50 values for the evaluated pro-inflammatory markers
Procedure, shortened: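 PMA (0.5 μM)-differentiated THP-1 cells, rested overnight in 0.1% FBS medium, pretreated with compound 1 h, then LPS (10 ng/mL) for 18 h at 37 °C. Supernatant cytokines measured by human ELISA (pg/mL); % inhibition normalised to LPS+ and LPS− controls, IC50 by linear interpolation.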

[4] = Viability Cell (%) HEK-Blue hTLR4 LPS-Induced (10 ng/mL)
[5] = Viability Cell (%) HEK-Blue hTLR4 Without LPS

Row | SMILES | Inhibition of SEAP release (NF-κB activity inhibition) [1] | Effect on TNF-α level (TNF-α) | IC50 (TNF-α) | TNF-α SI (selectivity index, CC50/IC50) (TNF-α) | Effect on IL-6 level (IL-6) | IC50 (IL-6) | IL-6 SI (selectivity index, CC50/IC50) (IL-6; THP-1 CC50 / IL-6 IC50) | Effect on IL-1β level (IL-1β) | Effect on MCP-1 level (MCP-1) | IC50 (MCP-1) | MCP-1 SI (selectivity index, CC50/IC50) (MCP-1) | viability at 18 h, 20 µM [2, 4] | viability at 18 h, 20 µM [2, 5] | Effect on p-p38 MAPK levels (phosphorylated-p38 MAPK) | IC50 [3]
1 | CC(=O)O[C@H]1[C@@H](O)[C@@]2(C)C3=CC[C@@H](c4ccoc4)[C@]3(C)CC[C@@H]2[C@@]2(C)C=CC(=O)C(C)(C)[C@H]12 [Compound 3, 6α-O-acetyl-7-deacetylnimocinol] | significantly inhibited SEAP release | significantly reduced | 9.18 µM | 2.21 | significantly reduced | 3.06 µM | 6.63 | significantly reduced | significantly reduced | 2.11 µM | 9.61 | 6.79 ± 6.22% | 20.7 ± 3.08% | significantly suppressed | < 20 µM
2 | CC(=O)O[C@H]1[C@@H](OC(C)=O)[C@@]2(C)C3=CC[C@@H](c4ccoc4)[C@]3(C)CC[C@@H]2[C@@]2(C)C=CC(=O)C(C)(C)[C@H]12 [Compound 5, dysobinin] | significantly inhibited SEAP release | significantly reduced | 5.76 µM | 2.53 | significantly reduced | 1.64 ± 0.97 µM |  | significantly reduced | significantly reduced | 0.87 µM | 16.76 | 23.6 ± 2.61% | 43.3 ± 6.02% | significantly suppressed | < 20 µM
